Measurements reported in US20240101569A1, “SALT CRYSTALS” (INTRA-CELLULAR THERAPIES, INC., priority 2021, published 2024).

How the values were obtained:
[1] = Solubility study of free base crystalline and succinate salt crystalline forms (pH titration, chase equilibrium); type: physicochemical; settings: water, thermodynamic from solid, aqueous, titration with UV-turbidity probe
From the text: The solubilities of free base crystalline and succinate salt crystalline forms of 2-(4-acetylbenzyl)-3-((4-fluorophenyl)amino)-5,7,7-trimethyl-7,8-dihydro-2H-imidazo[1,2-a]pyrazolo[4,3-e]pyrimidin-4(5H)-one are compared. Samples are titrated in water or in a minimum of three titrations under co-solvent conditions from the pH where the sample is fully dissolved. The sample precipitates from solution are detected by a UV-turbidity probe, which corresponds to a kinetic solubility. After precipitation, base and acid titrants are alternately added to drive the sample back and forth across the equilibrium solubility of the neutral species (the intrinsic solubility). At this point, the samples would exist in a supersaturated or subsaturated state (i.e. chase equilibrium). The intrinsic solubilities are determined from the pH between the supersaturated and subsaturated states corresponding to an intrinsic solubility. The samples can be determined by extrapolation to aqueous media, when co-solvent conditions are used.
This degree of aqueous solubility predicts faster dissolution rates in vitro and in vivo.

[2] = Pharmacokinetics study of succinate salt crystals in dogs; type: in vivo; settings: 5 mg/kg orally, plasma; for DN AUC0-24 / DN Cmax: dose-normalised; for Cmax / Tmax / half-life / AUC(0-t): dog, po; for AUC(0-t): read-out: AUC0-24
Procedure: The succinate salt of 2-(4-acetylbenzyl)-3-((4-fluorophenyl)amino)-5,7,7-trimethyl-7,8-dihydro-2H-imidazo[1,2-a]pyrazolo[4,3-e]pyrimidin-4(5H)-one is administered to dogs at a dose of 5 mg/kg orally. A separate group of dogs is administered 2-(4-acetylbenzyl)-3-((4-fluorophenyl)amino)-5,7,7-trimethyl-7,8-dihydro-2H-imidazo[1,2-a]pyrazolo[4,3-e]pyrimidin-4(5H)-one free base 5 mg/kg orally. The analysis of drug concentration in plasma samples collected is analyzed.
The pharmacokinetic (PK) parameters are determined from the plasma concentration versus time data by non-compartmental methods with uniform weighting. The maximum observed concentration (Cmax) and the time of the maximum observed concentration (Tmax) are obtained from the bioanalytical raw data. The area-under-the-plasma concentration-time curve from time zero to the time of the last measurable sample (AUC) is calculated by the trapezoidal rule.

[3] = test system: phosphodiesterase 1 (PDE 1); settings: statement, no values; cited from earlier work
[4] = Solid-state properties of succinate salt crystals (stated in words); type: physicochemical

Row | solubility [1] | DN AUC0-24 [2] | DN Cmax [2] | Cmax [2] | Tmax [2] | half-life [2] | AUC(0-t) [2] | hygroscopicity [4] | solubility (in words) [4] | stability [4] | Structure (SMILES) | PDE1 inhibition (in words) [3]
1 | 285 µg/mL | 304.6 [ng · hr/mL]/[mg/kg] | 41 [ng/mL]/[mg/kg] | 205 ng/mL | 1.3 h | 6.8 h | 1520 ng·h/mL | – | – | – | CC(=O)c1ccc(Cn2nc3c(c2Nc2ccc(F)cc2)C(=O)N(C)C2=NC(C)(C)CN23)cc1 [Free Base, 2-(4-acetylbenzyl)-3-((4-fluorophenyl)amino)-5,7,7-trimethyl-7,8-dihydro-2H-imidazo[1,2-a]pyrazolo[4,3-e]pyrimidin-4(5H)-one] | potent and selective
2 | ~7000 µg/mL | 331.9 [ng · hr/mL]/[mg/kg] | 123.8 [ng/mL]/[mg/kg] | 619 ng/mL | 0.4 h | 7 h | 1660 ng·h/mL | low hygroscopicity | good solubility | particularly stable | CC(=O)c1ccc(Cn2nc3c(c2Nc2ccc(F)cc2)C(=O)N(C)C2=NC(C)(C)CN23)cc1.O=C(O)CCC(=O)O [Succinate Salt, 2-(4-acetylbenzyl)-3-((4-fluorophenyl)amino)-5,7,7-trimethyl-7,8-dihydro-2H-imidazo[1,2-a]pyrazolo[4,3-e]pyrimidin-4(5H)-one succinate] | –
